Laboratory results published in patent US9523100B2, “Pesticidal compositions and related methods” (DOW AGROSCIENCES LLC, priority 2013, dated 2016).
Read-outs that look alike come from different tables or passages of the source.

Tests used:
[1] = tested on: Green Peach Aphid (GPA) (Myzus persicae) (MYZUPE); experiment: Bioassay for Green Peach Aphid (GPA), foliar spray on cabbage seedlings; type: in vivo; settings: 72 h, read-out: GPA 200 ppm, % Control (or Mortality) rating
From the text: Bioassay for Green Peach Aphid (GPA) (Myzus persicae) (MYZUPE)
The green peach aphid (Myzus persicae) is the most significant aphid pest of peach trees, causing decreased growth, shriveling of the leaves, and the death of various tissues. It is also hazardous because it acts as a vector for the transport of plant viruses, such as potato virus Y and potato leafroll virus to members of the nightshade/potato family Solanaceae, and various mosaic viruses to many other food crops. GPA attacks such plants as broccoli, burdock, cabbage, carrot, cauliflower, daikon, eggplant, green beans, lettuce, macadamia, papaya, peppers, sweet potatoes, tomatoes, watercress, and zucchini, among other plants GPA also attacks many ornamental crops such as carnation, chrysanthemum, flowering white cabbage, poinsettia, and roses. GPA has developed resistance to many pesticides.
Cabbage seedlings grown in 3-inch pots, with 2-3 small (3-5 cm) true leaves, were used as test substrate. The seedlings were infested with 20-50 GPA (wingless adult and nymph stages) one day prior to chemical application. Four pots with individual seedlings were used for each treatment. Test compounds (2 mg) were dissolved in 2 mL of acetone/methanol (1:1) solvent, forming stock solutions of 1000 ppm test compound. The stock solutions were diluted 5× with 0.025% Tween 20 in water to obtain the solution at 200 ppm test compound. A hand-held aspirator-type sprayer was used for spraying a solution to both sides of […] leaves until runoff. Reference plants (solvent check) were sprayed with the diluent only containing 20% by volume of acetone/methanol (1:1) solvent. Treated plants were held in a holding room for three days at approximately 25° C. and ambient relative humidity (RH) prior to grading. Evaluation was conducted by counting the number of live aphids per plant under a microscope. Percent control was measured by using Abbott's correction formula (W. S. Abbott, “A Method of Computing the Effectiveness of an Insecticide” J. Econ. Entomol. 18 (1925), pp. 265-267) as follows. Corrected % Control=100*(X−Y)/X
X=No. of live aphids on solvent check plants and
Y=No. of live aphids on treated plants
Biological Data for Green Peach Aphid (GPA) (MYZUPE) and Sweetpotato Whitefly-Crawler (WF) (BEMITA)” (see table section).
(§1) The mortality efficiency of the pesticidal compounds against GPA and WF insects was determined after treatment.

[2] = tested on: Sweetpotato Whitefly-Crawler (WF) (Bemisia tabaci) (BEMITA); experiment: Insecticidal test for Sweetpotato Whitefly-Crawler (WF) in foliar spray assay on cotton plants; type: in vivo; settings: 216 h, read-out: WF 200 ppm, % Control (or Mortality) rating
From the text: Insecticidal Test for Sweetpotato Whitefly-Crawler (WF) (Bemisia tabaci) (BEMITA) in Foliar Spray Assay
The sweetpotato whitefly (Bemisia tabaci) has been reported as a serious pest of cultivated crops world-wide. It has an extremely wide host range attacking more than 500 species of plants from 63 plant families. Weeds often serve as alternate hosts of crop pests. Direct feeding damage is caused by the piercing and sucking sap from the foliage of plants. This feeding causes weakening and early wilting of the plant and reduces the plant growth rate and yield Indirect damage results by the accumulation of honeydew produced by the whiteflies. Honeydew serves as a substrate for the growth of black sooty mold on leaves and fruit reducing photosynthesis and lessens the market value of the plant or yield. […] The sweetpotato whitefly is considered the most common and important whitefly vector of plant viruses worldwide.
Cotton plants (Gossypium hirsutum) grown in 3-inch pots, with 1 small (4-5 cm) true leaves, were used as test substrate. The plants were infested with 200-400 whitefly eggs 4-5 days prior to chemical application. Four pots with individual plants were used for each treatment. Test compounds (2 mg) were dissolved in 1 mL of acetone solvent, forming stock solutions of 2000 ppm test compound. The stock solutions were diluted 10× with 0.025% Tween 20 in water (diluents) to obtain the solution at 200 ppm test compound. A hand-held aspirator-type sprayer was used for spraying a solution to both sides of cotton leaves until runoff. Reference plants (solvent check) were sprayed with the diluent only containing 10% by volume of acetone solvent. Treated plants were held in a holding room for 9 days at approximately 25° C. and ambient relative humidity (RH) prior to grading. Evaluation was conducted by counting the number of live 3-4 nymph stage per plant under a microscope. Percent control was measured by using Abbott's correction formula (W. S. Abbott, “A Method of Computing the Effectiveness of an Insecticide” J. Econ. Entomol. 18 (1925), pp. 265-267) as follows.
Biological Data for Green Peach Aphid (GPA) (MYZUPE) and Sweetpotato Whitefly-Crawler (WF) (BEMITA)” (see table section). Corrected % Control=100*(X−Y)/X
X=No. of live nymphs on solvent check plants and
Y=No. of live nymphs on treated plants
as §1

[3] = 200 ppm foliar spray on cabbage seedlings, graded after three days, Abbott corrected % control
[4] = 200 ppm foliar spray on cotton plants, graded after 9 days, Abbott corrected % control

For CON=C(C)CCC(=O)N(C)c1cn(-c2cccnc2)nc1Cl (mixture of isomers) [Compound F60, (E/Z)-N-(3-Chloro-1-(pyridin-3-yl)-1H-pyrazol-4-yl)-4-(methoxyimino)-N-methylpentanamide], the mortality at 200 ppm [1, 3] was 80 to 100% and the mortality at 200 ppm [2, 4] was 80 to 100%.
CCN(C(=O)CC/C(C)=N/OCC1CC1(F)F)c1cn(-c2cccnc2)nc1Cl (mixture of isomers) [Compound F72, (E/Z)-N-(3-chloro-1-(pyridin-3-yl)-1H-pyrazol-4-yl)-4-(((2,2-difluorocyclopropyl)methoxy)imino)-N-ethylpentanamide] showed a mortality at 200 ppm [1, 3] of 80 to 100% and a mortality at 200 ppm [2, 4] of 80 to 100%.
CCN(C(=O)CCC(C)=NOC)c1cn(-c2cccnc2)nc1Cl (mixture of isomers) [Compound F92, (E/Z)-N-(3-chloro-1-(pyridin-3-yl)-1H-pyrazol-4-yl)-N-ethyl-4-(methoxyimino) pentanamide] was tested, and the mortality at 200 ppm [1, 3] was 80 to 100% and the mortality at 200 ppm [2, 4] was 80 to 100%.
CC(CCC(=O)N(C)c1cn(-c2cccnc2)nc1Cl)=NOC(C)C (mixture of isomers) [Compound F130, (E/Z)-N-(3-Chloro-1-(pyridin-3-yl)-1H-pyrazol-4-yl)-4-(isopropoxyimino)-N-methylpentanamide] gave a mortality at 200 ppm [1, 3] of 80 to 100% and a mortality at 200 ppm [2, 4] of 80 to 100%.
CCN(C(=O)CCC=NOCCC1CC1(F)F)c1cn(-c2cccnc2)nc1Cl (mixture of isomers) [FA61, (E/Z)-N-(3-Chloro-1-(pyridin-3-yl)-1H-pyrazol-4-yl)-4-((2-(2,2-difluorocyclopropyl)ethoxy)imino)-N-ethylbutanamide] gave a mortality at 200 ppm [1, 3] of 80 to 100% and a mortality at 200 ppm [2, 4] of 80 to 100%.
C=CCC(C)C(=O)N(CC)c1cn(-c2cccnc2)nc1Cl (stereo not shown) [CA1, N-[3-Chloro-1-(3-pyridyl)pyrazol-4-yl]-N-ethyl-2-methyl-pent-4-enamide] gave a mortality at 200 ppm [1, 3] of 80 to 100%.
CCN(C(=O)CCl)c1cn(-c2cccnc2)nc1Cl [CA2, 2-Chloro-N-[3-chloro-1-(3-pyridyl)pyrazol-4-yl]-N-ethyl-acetamide] showed a mortality at 200 ppm [1, 3] of 0 to 80% and a mortality at 200 ppm [2, 4] of 80 to 100%.
With CCN(C(=O)CCC(=O)O)c1cn(-c2cccnc2)nc1Cl [Compound C1, 4-((3-chloro-1-(pyridin-3-yl)-1H-pyrazol-4-yl)(ethyl)amino)-4-oxobutanoic acid] the mortality at 200 ppm [1, 3] was < 0% and the mortality at 200 ppm [2, 4] was 0 to 80%.
Compound CCN(C(=O)CCN)c1cn(-c2cccnc2)nc1Cl [Compound C2, 3-amino-N-(3-chloro-1-(pyridin-3-yl)-1H-pyrazol-4-yl)-N-ethylpropanamide] has a mortality at 200 ppm [1, 3] of 0 to 80% and a mortality at 200 ppm [2, 4] of 80 to 100%.
CC(C)(C)[Si](C)(C)N1CC(CC(=O)O)C1=O (stereo not shown) [Compound C3, 2-(1-(tert-butyldimethylsilyl)-2-oxoacetidin-3-yl)acetic acid] gave a mortality at 200 ppm ([1]; foliar) of 0 to 80%.
Work on CC(C)(C)[Si](C)(C)N1CC(CCC(=O)O)C1=O (stereo not shown) [Compound C4, 3-(1-(tert-Butyldimethylsilyl)-2-oxoazetidin-3-yl)propanoic acid] yielded a mortality at 200 ppm ([1]; foliar) of 0 to 80%.
CC(C)(C)[Si](C)(C)N1CC(CCCC(=O)O)C1=O (stereo not shown) [Compound C5, 4-(1-(tert-Butyldimethylsilyl)-2-oxoazetidin-3-yl)butanoic acid] was tested, and the mortality at 200 ppm ([1]; foliar) was 0 to 80% and the mortality at 200 ppm ([2]; foliar) was < 0%.
CCN(C(=O)C(C)Cl)c1cn(-c2cccnc2)nc1Cl (stereo not shown) [Compound C10, 2-Chloro-N-(3-chloro-1-(pyridin-3-yl)-1H-pyrazol-4-yl)-N-ethylpropanamide] was tested, and the mortality at 200 ppm [1, 3] was 80 to 100% and the mortality at 200 ppm [2, 4] was 80 to 100%.
With CCN(C(=O)CCNC)c1cn(-c2cccnc2)nc1Cl [Compound C11, N-(3-chloro-1-(pyridin-3-yl)-1H-pyrazol-4-yl)-N-ethyl-3-(methylamino)propanamide] the mortality at 200 ppm [1, 3] was 0 to 80% and the mortality at 200 ppm [2, 4] was 80 to 100%.
For CCN(C(=O)C(C)OC(C)=O)c1cn(-c2cccnc2)nc1Cl (stereo not shown) [Compound C12, 1-((3-chloro-1-(pyridin-3-yl)-1H-pyrazol-4-yl)(ethyl)amino)-1-oxopropan-2-yl acetate], the mortality at 200 ppm [1, 3] was 80 to 100% and the mortality at 200 ppm [2, 4] was 80 to 100%.
In the case of CCN(C(=O)C(C)O)c1cn(-c2cccnc2)nc1Cl (stereo not shown) [Compound C13, N-(3-chloro-1-(pyridin-3-yl)-1H-pyrazol-4-yl)-N-ethyl-2-hydroxypropanamide], the mortality at 200 ppm [1, 3] is reported as 80 to 100% and the mortality at 200 ppm [2, 4] is reported as 80 to 100%.
Compound CCN(C(=O)CCNCC(F)F)c1cn(-c2cccnc2)nc1Cl [Compound C14, N-(3-chloro-1-(pyridin-3-yl)-1H-pyrazol-4-yl)-3-((2,2-difluoroethyl)amino)-N-ethylpropanamide] has a mortality at 200 ppm [1, 3] of 80 to 100% and a mortality at 200 ppm [2, 4] of 80 to 100%.
For CCN(C(=O)CNC(=O)C1(C)CC1(F)F)c1cn(-c2cccnc2)nc1Cl (stereo not shown) [Compound F1, N-(2-((3-Chloro-1-(pyridin-3-yl)-1H-pyrazol-4-yl)(ethyl)amino)-2-oxoethyl)-2,2-difluoro-1-methylcyclopropanecarboxamide], the mortality at 200 ppm [1, 3] was 80 to 100% and the mortality at 200 ppm [2, 4] was 80 to 100%.
Compound CCN(C(=O)CNC(=O)OC(C)(C)C)c1cn(-c2cccnc2)nc1Cl [Compound F2, tert-Butyl (2-((3-chloro-1-(pyridin-3-yl)-1H-pyrazol-4-yl)(ethyl)amino)-2-oxoethyl)carbamate] has a mortality at 200 ppm [1, 3] of 80 to 100% and a mortality at 200 ppm [2, 4] of 80 to 100%.
CCN(C(=O)CC/C(C)=N/OCC1CC(F)(F)C1)c1cn(-c2cccnc2)nc1Cl [FA21, (E/Z)-N-(3-Chloro-1-(pyridin-3-yl)-1H-pyrazol-4-yl)-4-(((3,3-difluorocyclobutyl)methoxy)imino)-N-ethylpentanamide] gave a mortality at 200 ppm [1, 3] of 0 to 80%.
For CCN(C(=O)CC/C(C)=N/OCc1noc(C(C)(C)C)n1)c1cn(-c2cccnc2)nc1Cl [FA23, (E/Z)-4-(((5-(tert-Butyl)-1,2,4-oxadiazol-3-yl)methoxy)imino)-N-(3-chloro-1-(pyridin-3-yl)-1H-pyrazol-4-yl)-N-ethylpentanamide], the mortality at 200 ppm [1, 3] was 0 to 80%.
CCN(C(=O)CC/C(C)=N/OCc1ncc(C(F)(F)F)cc1Cl)c1cn(-c2cccnc2)nc1Cl [FA24, (E/Z)-N-(3-Chloro-1-(pyridin-3-yl)-1H-pyrazol-4-yl)-4-(((3-chloro-5-(trifluoromethyl)pyridin-2-yl)methoxy)imino)-N-ethylpentanamide] was tested, and the mortality at 200 ppm [1, 3] was 0 to 80%.
For CCN(C(=O)CC/C(C)=N/OCc1c(C)noc1C)c1cn(-c2cccnc2)nc1Cl [FA25, (E/Z)-N-(3-Chloro-1-(pyridin-3-yl)-1H-pyrazol-4-yl)-4-(((3,5-dimethylisoxazol-4-yl)methoxy)imino)-N-ethylpentanamide], the mortality at 200 ppm [1, 3] was 0 to 80%.
CCN(C(=O)C(C)C/C(C)=N/OCCC1CC1(F)F)c1cn(-c2cccnc2)nc1Cl (stereo not shown) [FA58, (E)-N-(3-Chloro-1-(pyridin-3-yl)-1H-pyrazol-4-yl)-4-((2-(2,2-difluorocyclopropyl)ethoxy)imino)-N-ethyl-2-methylpentanamide] was tested, and the mortality at 200 ppm [1, 3] was 80 to 100%.
